# Test results as given in US7455861B2, “Angelicae sinensis extracts useful for treatment of cancers” (priority 2004, dated 2008).
# Like-named read-outs stand apart in the source and are kept apart here.
# Tests used:
# [1] = Cytotoxicity (IC50) on HDF; assay type: cell-based, human; settings: human, human dermal fibroblasts (HDF), normal cells; Table 1, value in parentheses
# Description: (§1) Human umbilical vascular endothelial cells (HUVECs) were purchased from Cascade Biologics, Inc. (USA). HUVECs were maintained in Medium 200 (Cascade Biologics, Inc. USA) supplemented with 10% fetal bovine serum (FBS; Gibco BRL) and low serum growth supplement (LSGS; Cascade Biologics, Inc. USA). Human dermal fibroblasts (HDFs) were purchased from Cascade Biologics, Inc. (USA). HDFs were maintained in Medium 106 (Cascade Biologics, Inc. USA) supplemented with 10% FBS and low serum growth supplement (LSGS; Cascade Biologics, Inc. USA). The human colon adenocarcinoma cell lines HT-29 were purchased from the ATCC (Manassas, Va. USA). HT-29 were maintained in Dubecco's Modified Eagle Medium (DMEM; Gibco) supplemented with 10% FBS and 100 ng/ml penicillin and […] streptomycin (Life Technologies, Inc., Grand Island, N.Y., USA). For the proliferation assay of cell in log growth (G1), the cells were harvested at 60-80% of confluence. 100 μl of cell suspensions were dispensed onto a Falcon 96-well plates The densities were 6×10^3 cells/well in Medium 200 (for HUVECs), and 9×10^3 cells/well in Medium 106 (for HDFs), and 5×10^3 cells/well in DMEM (for HT-29) supplemented with 10% FBS. The cells were pre-incubated for 24 hours in an incubator (Humidified atmosphere, e.g., at 37° C., 5% CO2). 10 μl of toxicant of various concentrations were added into the culture medium of the plate. The cell cultures were incubated for 48 hours. 10 μl of the Cell Counting Kit-8 (CCK-8; DOJINDO) solution were added and the cell cultures incubated for 1˜4 hours in the incubator. The absorbance was measured at 450 nm, using a microplate reader with a reference wavelength at 600 nm or over.
# (§2) Human tumor cell lines (MCF-7, CL1-5, HT-29, Caco-2), human umbilical vascular endothelial cells (HUVEC), and human dermal fibroblasts (HDF) were tested for sensitivity on Angelicae sinensis extracts, ligustilide, n-butylidenephthalide and its derivatives in vitro. The DBTRG-05MG, BCM, HL-60 and J5 cells were grown in RPMI-1640 medium containing 10% fetal calf serum and 100 ng/ml penicillin and […] streptomycin at 37° C. in a humidified atmosphere with 5% CO2. The G5T/VGH, RG2, Ni 8, SVEC and Balb/3T3 cells were cultured in DMEM with 10% fetal calf serum and 100 ng/ml penicillin and […] streptomycin at 37° C. in 5% CO2. Mycoplasma infection of the culture cells was excluded by PCR screening methods before each experiment.
# (§3) The effects on cell viability after the treatments with different concentrations of the Angelicae sinensis extracts or the active components purified therefrom were evaluated by modified MTT assay in triplicate. Briefly, the cells (5×10^3) were incubated into 96-well plates containing 100 μl of a growth medium. The cells were permitted to adhere for 24 hours, then treated with 100 μl of the herbal extracts or the active components dissolved in the medium. The control contained DMSO of <0.02% (v/v). After 24, 48 and 72 h incubation, the drug-containing medium was replaced by 50 μl of fresh medium, and cells in each well were incubated in 50 μl of 400 μg/ml MTT for 6-8 h. The medium and MTT were removed later and 100 μl of DMSO was added to each well and to the control, to dissolve the soluble components. Absorbance at 550 nm of the solutions was measured with MRX Microtiter Plate Luminometer (DYNEX, USA). The absorbance of untreated cells was considered as 100%. […]
# MMP-2 = assay: RT-PCR of MMP-2 in HUVEC; assay type: cell-based, human
# J5 = assay: Cytotoxicity (IC50) on J5; assay type: cell-based; settings: Homo sapiens
# Method: as §2
# as §3, with “After 24, 48 and 72 h incubation, the drug-containing medium was replaced by 50 μl of fresh medium, and cells in each well were incubated in 50 μl of 400 μg/ml MTT for 6-8 h. The medium and MTT were removed later and 100 μl of DMSO was added to each well and to the control, to dissolve the soluble components.” left out
# HCT15 = assay: Cytotoxicity (IC50) on HCT15; assay type: cell-based; settings: Homo sapiens, HCT-15
# Method: (§4) The effects on cell viability after the treatments with different concentrations of the Angelicae sinensis extracts or the active components purified therefrom were evaluated by modified MTT assay in triplicate. Briefly, the cells (5×10^3) were incubated into 96-well plates containing 100 μl of a growth medium. The cells were permitted to adhere for 24 hours, then treated with 100 μl of the herbal extracts or the active components dissolved in the medium. The control contained DMSO of <0.02% (v/v). After 24, 48 and 72 h incubation, the drug-containing medium was replaced by 50 μl of fresh medium, and cells in each well were incubated in 50 μl of 400 μg/ml MTT for 6-8 h. The medium and MTT were removed later and 100 μl of DMSO was added to each well and to the control, to dissolve the soluble components. Absorbance at 550 nm of the solutions was measured with MRX Microtiter Plate Luminometer (DYNEX, USA). The absorbance of untreated cells was considered as 100%. To evaluate the effects of the extracts or the active components on cell growth rate of GBM cells, 5×10^3 exponentially growing cells were treated with different concentrations for 24, 48, or 72 h. The cytotoxicity of each test substance was determined as an IC50 value, which represents the drug concentration required to cause 50% inhibition. All experiments in this study were performed in triplicate.
# CL1-5 = assay: Cytotoxicity (IC50) on CL1-5; assay type: cell-based; settings: Homo sapiens
# Method: as §2
# as §3, with “After 24, 48 and 72 h incubation, the drug-containing medium was replaced by 50 μl of fresh medium, and cells in each well were incubated in 50 μl of 400 μg/ml MTT for 6-8 h. The medium and MTT were removed later and 100 μl of DMSO was added to each well and to the control, to dissolve the soluble components.” left out
# [2] = Cytotoxicity (IC50) on HUVEC; assay type: cell-based, human; settings: human, human umbilical vascular endothelial cells (HUVEC), normal cells, read-out: Cytotoxicity, IC50 HUVEC
# Description: as §1, §2, §4
# DBTRG-05MG = assay: Cell cycle analysis (PI staining, FACScan) in GBM cells; assay type: cell-based, human; settings: 400 μM BP
# Method: Brain tumor cell lines DBTRG-05MG and G5T/VGH were cultured in the growth medium with a diluent. For each test and control, DMSO was added, and the content is less than 0.02% (v/v). For the AS-C and BP treatment, 70 μg/ml of AS-C and 400 μM of BP were added, respectively. All were cultured for 48 hours. The analysis of cell cycle distribution was performed by DNA staining with propidium iodide (PI). Briefly, 2×10^6 adherent cells were detached by trypsinization. The detached cells and the floating dead cells were centrifuged and washed twice with 10 ml of cold 1×PBS (Life Technologies, Inc.). Supernatant was aspirated, cells were re-suspended in 0.8 ml of 1×PBS, and then 200 μl of PI solution (50 μg/ml PI+0.05 mg/ml RNase A; Sigma Chemical Co.) was added, and the cells were refrigerated at 4° C. overnight. The cells were incubated while protected from light at room temperature for at least 2 h before DNA analysis. After staining, DNA was detected and quantified on 20,000 total cells using a FACScan (Becton Dickinson Immunocytometry Systems, San Jose, Calif., USA) and CellQuest analysis software. The G0/G1 phases were gated in M1 (×2); G2/M phases were gated in M2 (×2); the total cells were gated in M3; S phase was M3−(M1(×2)+M2(×2)); Sub G1 phase (apoptosis cells) was gated in M4.
# HUVEC = assay: Tube formation of HUVEC; assay type: cell-based, human
smiles,measurement,setting,value
"CCCC=C1OC(=O)c2ccccc21 [BP, n-Butylidenephthalide]",IC50,[1],1600 µM
same,Inhibition RT-PCR MMP-2,MMP-2,159.4 µg/mL
same,Inhibition RT-PCR MMP-2,MMP-2; value in parentheses,(847.9 μM)
same,IC50,J5; Table 2,15 to 20 µg/mL
same,IC50,"J5; Table 2, value in parentheses",79.8 to 106 µM
same,IC50,HCT15; Table 2,25 to 30 µg/mL
same,IC50,"HCT15; Table 2, value in parentheses",133 to 160 µM
same,IC50,CL1-5; Table 2,> 100 µg/mL
same,IC50,"CL1-5; Table 2, value in parentheses",> 532 µM
same,IC50,"[2]; Table 1, value in parentheses",> 532 µM
same,IC50,[2]; Table 1,> 100 µg/mL
same,cell cycle accumulation at G0/G1 phase,DBTRG-05MG,> 90%
same,Inhibition Tube Formation,HUVEC,531.3 µg/mL
same,Inhibition Tube Formation,HUVEC; value in parentheses,(2826 μM)
